Counter-ions that a name gives are not always drawn. Like-named read-outs stand apart in the source and are kept apart here.
Legend:
sGFP::ATZ [1] = test: LOPAC library high-content primary screen for sGFP::ATZ accumulation in transgenic animals; format: in vivo, C. elegans; settings: for Rank-score: 24 h
sGFP::ATZ [2] = test: Hit compound characterization: dose-response in the sGFP::ATZ HCS assay; format: in vivo, C. elegans; set-up: key to dose-dependent response: c: Compound demonstrated a dose-dependent response.; Compound failed to demonstrate a dose-dependent response; settings: for degradation of aggregated ATZ protein: Caenorhabditis elegans model system; for dose-dependent response: retest at 0-100 μM, 24 or 48 hours; for effect on sGFP::ATZ accumulation: dose-response, 0-100 μM
Experimental: Imaging of animals using the ArrayScan VTI: Prior to imaging, worms were anesthetized by adding 30 μl of 0.02 M NaN3 in PBS to each well. Plates were resealed, inverted twice, and incubated for 5 minutes at room temperature. Images were acquired with the ArrayScan VTI HCS Reader fitted with a 2.5× objective and a 0.63× coupler using a 2-channel (TRITC and GFP) assay. Real-time analysis was performed using the SpotDetector BioApplication optimized to quantify fluorescent protein expression in C. elegans. Image acquisition and analysis of a 384-well plate was completed in <45 minutes. The total number of animals in the well was determined by counting the number of red heads (Pmyo-2mRFP) in the TRITC channel. Total spot area or total spot intensity was determined by quantifying the GFP-positive spots in the GFP channel. Total spot area or total spot intensity per animal was determined by dividing the values from the GFP channel by that from the TRITC channel.
Hit compound characterization: Compounds that were identified as potential hits were purchased (if available) and retested for verification. […] Compounds that produced a response in a dose-dependent manner were further tested for a time-dependent response. Compound dose-response curves were performed by dispensing 15 μl of a 4× stock solution into 384-well plates containing 15 μl of assay medium (see above). Thirty-five animals were sorted into each well bringing the volume to ˜60 μl. The final compound concentrations in each well varied from 0-100 μM. Assay plates were incubated in a 22° C. incubator for 24 or 48 hours. Each compound was tested in quadruplicate in at least 2 independent experiments.
Statistical evaluation: Statistical evaluation of data was performed using Prism® (Graphpad Software). The significance of actual and predicted data in FIGS. 12, 14 and 15 was determined using a linear regression analysis and comparing the slope and goodness-of-fit (r2) values. Statistical significance of the spot count, spot area and spot intensity values between N2 (wild-type) and various transgenic lines in FIG. 13 and dose-response in FIG. 17 was determined using an unpaired, one-tailed, Student's t-test.
Compound screen: To test the HCS protocol, a pilot drug screen was performed using the library of pharmacologically active compounds (LOPAC1280™ 1280 compounds). Tight gating parameters for total fluorescence were used to sort 35 young adult Pnhx2sGFP::ATZ animals into wells of 384-well plates containing […] of a LOPAC compound and 0.5% DMSO. Pnhx2sGFP::ATZ animals incubated with 0.5% DMSO served as untreated controls and were placed in the first-two and last-two columns of each plate. In a representative experiment, plate 1 of the LOPAC library was set-up for screening on day 1, and 3 other plates were set-up on the next day. After 24 incubation at 25° C., animals were immobilized by the addition of NaAz and placed in the ArrayScan VTI for automated imaging. To examine for systematic errors, the raw data (total spot area/animal) were depicted as a plate-well scatter plot (FIG. 17A). […] This difference reflects a wider sort-window used to collect animals on day 1 in comparison to that used on day 2. As the average values of the negative controls and that of the sample wells were similar, we combined the control and samples wells for normalization and to identify potential hits using the z-score (FIG. 17B). The ArrayScan VTI reads microtiter plates by rows, alternating from left-to-right, and then right-to-left. For some assays, we noted that the control fluorescence values would drift upwards slightly in rows towards the bottom of the plate. This drift appeared to correlate with an increase in chamber temperature during the scanning period and was minimized by cooling the chamber with a fan or shortening the read times by using 2.5× objective with a 0.6 coupler. Nonetheless, intra-plate variation was controlled for by presenting the data as a B-score (FIG. 17C). […]

[3] = among compounds that decreased ATZ accumulation, based on relative rank-scores
[4] = average of compound rankings by ascending B-score from two independent screens, 50 μM, <110 decreased, >1225 increased sGFP::ATZ inclusions
[5] = among compounds that increased ATZ accumulation, based on relative rank-scores

| Molecule | Overall rank-order (sGFP::ATZ [1]; [3]) | Rank-score (sGFP::ATZ [1]; [4]) | dose-dependent response (sGFP::ATZ [2]) | Overall rank-order (sGFP::ATZ [1]; [5]) | also measured |
| --- | --- | --- | --- | --- | --- |
| 5′-3′2,3-dicarboxy-2,3-dimethyl-1,4-epoxycyclohexane [cantharidic acid] | 22 | 79.0 | cantharidic acid^c |  | concentration at which an anti-protein aggregate effect was achieved (sGFP::ATZ [2]; C. elegans assay): 100 µM; degradation of aggregated ATZ protein (sGFP::ATZ [2]): able to promote degradation of aggregated ATZ protein |
| CCN1CCc2nc(N)oc2CC1.Cl.Cl [B-HT 933 dihydrochloride] | 32 | 105.5 | B-HT 933 dihydrochloride^d |  |  |
| CC(=O)O[C@H]1C(=O)[C@@]2(C)[C@H]([C@H](OC(=O)c3ccccc3)[C@]3(O)C[C@H](OC(=O)[C@H](O)[C@@H](NC(=O)c4ccccc4)c4ccccc4)C(C)=C1C3(C)C)[C@]1(OC(C)=O)CO[C@@H]1C[C@@H]2O [taxol, 5β,20-Epoxy-1,2α,4,7β, 10β,13α-hexahydroxytax-11-en-9-one 4,10-diacetate 2-benzoate 13-ester with (2R,3S)—N-benzoyl-3-phenylisoserine] |  |  | taxol^c |  | Overall rank-order (sGFP::ATZ [1]): 19; Rank-score (sGFP::ATZ [1]; 50 µM): 73.5; degradation of aggregated ATZ protein (sGFP::ATZ [2]): able to promote degradation of aggregated ATZ protein |
| CC/C(=C(\c1ccccc1)c1ccc(OCCN(C)C)cc1)c1ccccc1 [tamoxifen citrate, (Z)-2-[4-(1,2-diphenylbut-1-enyl)phenoxy]-N,N-dimethylethylamine] | 24 | 83.5 | tamoxifen citrate^c |  | degradation of aggregated ATZ protein (sGFP::ATZ [2]): able to promote degradation of aggregated ATZ protein; effect on sGFP::ATZ accumulation (sGFP::ATZ [2]): dose-dependant decrease in sGFP::ATZ accumulation |
| Cc1cnc(C(=O)NCCc2ccc(S(=O)(=O)NC(=O)NC3CCCCC3)cc2)cn1 [glipizide] |  | 1234.0 | glipizide^d | 12 |  |
| NC(=Nc1ccccc1)NC(=O)c1nc(Cl)c(N)nc1N [phenamil methanesulfonate] | 13 | 57.5 | phenamil methanesulfonate^d |  |  |
| CC(C)(C)c1cc(/C=C(\C#N)C(N)=S)cc(C(C)(C)C)c1O [tyrphostin AG 879] |  | 1236.5 | tyrphostin AG 879^c | 10 | effect on sGFP::ATZ accumulation (sGFP::ATZ [2]): increased; effect on sGFP::ATZ accumulation (sGFP::ATZ [2]; listed as tyrphostatin): increase in sGFP::ATZ accumulation |
| C/C=C(/C)C(=O)O[C@H]1C(C)=C2[C@H]([C@@H]1OC(=O)CCCCCCC)[C@@](C)(OC(C)=O)C[C@H](OC(=O)CCC)[C@@]1(O)[C@H]2OC(=O)[C@@]1(C)O [thapsigargin] |  | 1256.0 | thapsigargin^c | 2 |  |
| C[C@](N)(Cc1ccc(O)c(O)c1)C(=O)O [L-alpha-methyl DOPA] | 18 | 72.5 |  |  |  |
| CN(C)c1cc2c(Nc3ccc4c(cnn4Cc4ccccc4)c3)ncnc2cn1 [GW2974] |  | 1263.0 |  | 1 |  |
| CN(C)CCC=C1c2ccccc2COc2ccccc21 [doxepin hydrochloride] |  |  | doxepin hydrochloride^d |  | Overall rank-order (sGFP::ATZ [1]): 15; Rank-score (sGFP::ATZ [1]; 50 µM): 61.0 |
| CS(=O)(=O)O.Cc1c(C(=O)c2cccc3ccccc23)c2cccc3c2n1[C@H](CN1CCOCC1)CO3 [(R)-(+)-WIN 55,212-2 mesylate] |  | 1231.0 |  | 14 |  |
| CCCN(CCC)[C@H]1CCc2c(F)ccc(O)c2C1.Cl [S(−)-UH-301 hydrochloride] | 17 | 65.0 |  |  |  |
| Cl.Cl.OCCN1CCN(CC/C=C2/c3ccccc3Sc3ccc(C(F)(F)F)cc32)CC1 [cis-(Z)-flupenthixol dihydrochloride] | 20 | 74.0 |  |  |  |
| O=c1[nH]c2cc(Cl)ccc2c(O)c1-c1cccc(Oc2ccccc2)c1 [L-701,324] | 12 | 57.5 |  |  |  |
